Data: patent publication US10645929B2, “Pyrimidine compound” (Sumitomo Chemical Company, Limited, priority 2015, dated 2020)

System: cucurbit leaf beetle (Aulacophora femoralis)
Test: Test Example 10: sprayed cucumber leaves, cucurbit leaf beetle
Format: in vivo
Conditions: 50 ppm, spray 10 mL/seedling, 2nd instar larvae, after 5 days
Protocol: Next, Test examples are used to show efficacies of the Present compounds on controlling harmful arthropods. In the following Test examples, the tests were carried out at 25° C.
Each test compound is dissolved into a mixed solution (10 μL) of xylene, DMF, and a surfactant (at a volume ratio of xylene:DMF:surfactant=4:4:1) per 1 mg of the test compound, and water containing a spreader (0.03% by volume) is added thereto to prepare a diluted solution containing a prescribed concentration of each test compound.
Cucumber seedlings (on the developmental stage of the second to third true leaf) are planted in a plastic cup, and each of the diluted solutions is sprayed into the seedlings in the ratio of 10 mL/seedling. Thereafter, the second leaves are cut out and placed into a plastic cup, and 10 heads of the 2nd instar larvae of cucurbit leaf beetle (Aulacophora femoralis) are released into the cup, and the cup is covered with a lid. After 5 days, the number of the dead insects is counted, and the mortality of insects is calculated by the following equation. Mortality (%)=(Number of dead insects/10)×100

SMILES: CCS(=O)(=O)c1cc(C(F)(F)F)ccc1-c1ncc(OCC(F)(F)C(F)C(F)(F)F)cn1 (racemic) [compound 2]
- mortality: ≥ 80%
